In article doi:10.1101/2021.02.22.432362v1 (biorxiv, 2021):
pIC50: −log10 of the molar value. Where two headings read alike, the source gives them in different places. Each block holds one molecule with its values, some of them ahead of it.

Key:
BRD8(1) = BRD8(1) (Homo sapiens, UniProt Q9H0E9); assay: AlphaScreen biotin-tracer competition; format: binding
ATAD2A = ATAD2A (Homo sapiens, UniProt Q6PL18); assay: biochemical; conditions: read-out: % Ctrl (1 uM)
ATAD2B = ATAD2B (Homo sapiens, UniProt Q9ULI0); assay: biochemical; conditions: read-out: % Ctrl (1 uM)
BAZ2A = BAZ2A (Homo sapiens, UniProt Q9UIF9); assay: biochemical; conditions: read-out: % Ctrl (1 uM)
BAZ2B = BAZ2B (Homo sapiens, UniProt Q9UIF8); assay: biochemical; conditions: read-out: % Ctrl (1 uM)
BRD1 = BRD1 (Homo sapiens, UniProt O95696); assay: biochemical; conditions: read-out: % Ctrl (1 uM)
BRD2(1) = BRD2(1) (Homo sapiens, UniProt P25440); assay: biochemical; conditions: read-out: % Ctrl (1 uM)
BRD2(2) = BRD2(2) (Homo sapiens, UniProt P25440); assay: biochemical; conditions: read-out: % Ctrl (1 uM)
BRD3(1) = BRD3(1) (Homo sapiens, UniProt Q15059); assay: biochemical; conditions: read-out: % Ctrl (1 uM)
BRD3(2) = BRD3(2) (Homo sapiens, UniProt Q15059); assay: biochemical; conditions: read-out: % Ctrl (1 uM)
BRD4(1) = BRD4(1) (Homo sapiens, UniProt O60885); assay: biochemical; conditions: read-out: % Ctrl (1 uM)
BRD4(2) = BRD4(2) (Homo sapiens, UniProt O60885); assay: biochemical; conditions: read-out: % Ctrl (1 uM)
BRD7 = BRD7 (Homo sapiens, UniProt Q9NPI1); assay: biochemical; conditions: read-out: % Ctrl (1 uM)
BRD9 [1] = molecular target: BRD9 (Homo sapiens, UniProt Q9H8M2); assay: biochemical; conditions: read-out: % Ctrl (1 uM)
BRDT(1) = BRDT(1) (Homo sapiens, UniProt Q58F21); assay: biochemical; conditions: read-out: % Ctrl (1 uM)
BRDT(2) = BRDT(2) (Homo sapiens, UniProt Q58F21); assay: biochemical; conditions: read-out: % Ctrl (1 uM)
BRPF1 = BRPF1 (Homo sapiens, UniProt P55201); assay: biochemical; conditions: read-out: % Ctrl (1 uM)
BRPF3 = BRPF3 (Homo sapiens, UniProt Q9ULD4); assay: biochemical; conditions: read-out: % Ctrl (1 uM)
CECR2 = CECR2 (Homo sapiens, UniProt Q9BXF3); assay: biochemical; conditions: read-out: % Ctrl (1 uM)
CREBBP = CREBBP (Homo sapiens, UniProt Q92793); assay: biochemical; conditions: read-out: % Ctrl (1 uM)
EP300 = EP300 (Homo sapiens, UniProt Q09472); assay: biochemical; conditions: read-out: % Ctrl (1 uM)
FALZ = FALZ (Homo sapiens, UniProt Q12830); assay: biochemical; conditions: read-out: % Ctrl (1 uM)
GCN5L2 = GCN5L2 (Homo sapiens, UniProt Q92830); assay: biochemical; conditions: read-out: % Ctrl (1 uM)
PBRM1(2) = PBRM1(2) (Homo sapiens, UniProt Q86U86); assay: biochemical; conditions: read-out: % Ctrl (1 uM)
PBRM1(5) = PBRM1(5) (Homo sapiens, UniProt Q86U86); assay: biochemical; conditions: read-out: % Ctrl (1 uM)
PCAF = PCAF (Homo sapiens, UniProt Q92831); assay: biochemical; conditions: read-out: % Ctrl (1 uM)
SMARCA2 = SMARCA2 (Homo sapiens, UniProt P51531); assay: biochemical; conditions: read-out: % Ctrl (1 uM)
SMARCA4 = SMARCA4 (Homo sapiens, UniProt P51532); assay: biochemical; conditions: read-out: % Ctrl (1 uM)
TAF1(2) = TAF1(2) (Homo sapiens, UniProt P21675); assay: biochemical; conditions: read-out: % Ctrl (1 uM)
TAF1L(2) = TAF1L(2) (Homo sapiens, UniProt Q8IZX4); assay: biochemical; conditions: read-out: % Ctrl (1 uM)
TRIM24(PHD,Bromo.) = TRIM24(PHD,Bromo.) (Homo sapiens, UniProt O15164); assay: biochemical; conditions: read-out: % Ctrl (1 uM)
Trim33(PHD,Bromo.) = Trim33(PHD,Bromo.) (Homo sapiens, UniProt Q9UPN9); assay: biochemical; conditions: read-out: % Ctrl (1 uM)
WDR9(2) = WDR9(2) (Homo sapiens, UniProt Q9NSI6); assay: biochemical; conditions: read-out: % Ctrl (1 uM)
BRD9 [2] = molecular target: BRD9 (Homo sapiens, UniProt Q9H8M2); assay: AlphaScreen tracer competition; format: binding
Target sequence in this assay (Q9H8M2 134-239 limits assumed): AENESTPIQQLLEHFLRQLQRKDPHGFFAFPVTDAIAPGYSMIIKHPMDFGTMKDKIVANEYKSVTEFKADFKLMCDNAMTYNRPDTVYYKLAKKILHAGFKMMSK

BRD8(1), sequence (Q9H0E9 706-811 limits assumed): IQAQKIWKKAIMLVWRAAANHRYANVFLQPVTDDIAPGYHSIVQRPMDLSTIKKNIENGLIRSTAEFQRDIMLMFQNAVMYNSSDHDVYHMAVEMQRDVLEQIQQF
BRD7, sequence (Q9NPI1 whole entry): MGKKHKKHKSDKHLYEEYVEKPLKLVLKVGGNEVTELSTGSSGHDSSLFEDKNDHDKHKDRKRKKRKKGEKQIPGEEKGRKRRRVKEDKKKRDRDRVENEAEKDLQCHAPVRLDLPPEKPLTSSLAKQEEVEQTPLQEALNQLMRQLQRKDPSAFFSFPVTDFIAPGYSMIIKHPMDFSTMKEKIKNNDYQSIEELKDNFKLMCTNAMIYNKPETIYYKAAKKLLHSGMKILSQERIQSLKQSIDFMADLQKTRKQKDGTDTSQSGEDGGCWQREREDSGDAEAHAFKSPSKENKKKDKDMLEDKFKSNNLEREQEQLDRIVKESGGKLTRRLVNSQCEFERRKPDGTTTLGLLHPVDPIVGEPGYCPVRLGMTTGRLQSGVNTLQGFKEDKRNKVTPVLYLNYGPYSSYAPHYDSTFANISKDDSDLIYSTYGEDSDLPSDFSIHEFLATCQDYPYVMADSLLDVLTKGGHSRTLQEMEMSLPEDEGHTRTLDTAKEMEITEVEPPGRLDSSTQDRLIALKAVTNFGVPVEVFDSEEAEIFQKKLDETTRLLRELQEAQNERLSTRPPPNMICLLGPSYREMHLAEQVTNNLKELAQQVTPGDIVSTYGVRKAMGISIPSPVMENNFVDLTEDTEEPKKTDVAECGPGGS
ATAD2B, sequence (Q9ULI0 whole entry): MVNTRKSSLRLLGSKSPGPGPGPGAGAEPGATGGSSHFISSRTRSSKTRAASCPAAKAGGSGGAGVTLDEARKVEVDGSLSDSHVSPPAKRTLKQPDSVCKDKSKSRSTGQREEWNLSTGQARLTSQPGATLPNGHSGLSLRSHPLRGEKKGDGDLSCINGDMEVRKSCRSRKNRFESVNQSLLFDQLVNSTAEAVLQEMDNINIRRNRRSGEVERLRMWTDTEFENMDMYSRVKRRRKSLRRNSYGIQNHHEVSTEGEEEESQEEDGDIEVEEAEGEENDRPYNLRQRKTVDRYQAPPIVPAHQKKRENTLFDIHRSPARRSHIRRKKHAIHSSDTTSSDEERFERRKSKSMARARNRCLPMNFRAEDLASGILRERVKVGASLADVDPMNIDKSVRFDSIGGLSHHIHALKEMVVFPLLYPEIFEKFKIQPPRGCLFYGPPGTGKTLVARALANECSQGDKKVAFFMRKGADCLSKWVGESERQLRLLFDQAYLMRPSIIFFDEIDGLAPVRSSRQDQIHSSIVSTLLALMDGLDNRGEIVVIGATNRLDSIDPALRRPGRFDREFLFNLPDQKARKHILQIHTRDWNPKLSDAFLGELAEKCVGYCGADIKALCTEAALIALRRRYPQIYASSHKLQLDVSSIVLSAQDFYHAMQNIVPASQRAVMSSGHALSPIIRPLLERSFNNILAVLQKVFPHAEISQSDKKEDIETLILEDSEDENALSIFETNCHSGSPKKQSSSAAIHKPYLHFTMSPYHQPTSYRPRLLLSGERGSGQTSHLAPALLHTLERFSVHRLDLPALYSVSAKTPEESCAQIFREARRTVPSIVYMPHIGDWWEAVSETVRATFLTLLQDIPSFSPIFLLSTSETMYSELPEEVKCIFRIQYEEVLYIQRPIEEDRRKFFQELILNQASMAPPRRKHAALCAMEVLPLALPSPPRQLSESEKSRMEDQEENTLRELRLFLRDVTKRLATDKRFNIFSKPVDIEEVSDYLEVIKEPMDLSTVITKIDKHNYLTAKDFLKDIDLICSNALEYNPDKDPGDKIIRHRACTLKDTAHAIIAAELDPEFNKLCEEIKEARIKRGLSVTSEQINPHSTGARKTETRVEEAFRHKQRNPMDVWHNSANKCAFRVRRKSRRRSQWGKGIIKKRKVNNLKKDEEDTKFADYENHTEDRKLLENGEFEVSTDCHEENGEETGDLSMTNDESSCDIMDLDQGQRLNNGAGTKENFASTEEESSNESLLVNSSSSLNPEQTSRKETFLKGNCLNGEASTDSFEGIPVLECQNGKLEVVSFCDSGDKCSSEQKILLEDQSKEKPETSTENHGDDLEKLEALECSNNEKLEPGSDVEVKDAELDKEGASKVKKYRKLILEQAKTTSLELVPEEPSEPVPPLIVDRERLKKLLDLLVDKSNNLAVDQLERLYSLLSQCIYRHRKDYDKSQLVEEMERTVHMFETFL
TAF1L(2), sequence (Q8IZX4 whole entry): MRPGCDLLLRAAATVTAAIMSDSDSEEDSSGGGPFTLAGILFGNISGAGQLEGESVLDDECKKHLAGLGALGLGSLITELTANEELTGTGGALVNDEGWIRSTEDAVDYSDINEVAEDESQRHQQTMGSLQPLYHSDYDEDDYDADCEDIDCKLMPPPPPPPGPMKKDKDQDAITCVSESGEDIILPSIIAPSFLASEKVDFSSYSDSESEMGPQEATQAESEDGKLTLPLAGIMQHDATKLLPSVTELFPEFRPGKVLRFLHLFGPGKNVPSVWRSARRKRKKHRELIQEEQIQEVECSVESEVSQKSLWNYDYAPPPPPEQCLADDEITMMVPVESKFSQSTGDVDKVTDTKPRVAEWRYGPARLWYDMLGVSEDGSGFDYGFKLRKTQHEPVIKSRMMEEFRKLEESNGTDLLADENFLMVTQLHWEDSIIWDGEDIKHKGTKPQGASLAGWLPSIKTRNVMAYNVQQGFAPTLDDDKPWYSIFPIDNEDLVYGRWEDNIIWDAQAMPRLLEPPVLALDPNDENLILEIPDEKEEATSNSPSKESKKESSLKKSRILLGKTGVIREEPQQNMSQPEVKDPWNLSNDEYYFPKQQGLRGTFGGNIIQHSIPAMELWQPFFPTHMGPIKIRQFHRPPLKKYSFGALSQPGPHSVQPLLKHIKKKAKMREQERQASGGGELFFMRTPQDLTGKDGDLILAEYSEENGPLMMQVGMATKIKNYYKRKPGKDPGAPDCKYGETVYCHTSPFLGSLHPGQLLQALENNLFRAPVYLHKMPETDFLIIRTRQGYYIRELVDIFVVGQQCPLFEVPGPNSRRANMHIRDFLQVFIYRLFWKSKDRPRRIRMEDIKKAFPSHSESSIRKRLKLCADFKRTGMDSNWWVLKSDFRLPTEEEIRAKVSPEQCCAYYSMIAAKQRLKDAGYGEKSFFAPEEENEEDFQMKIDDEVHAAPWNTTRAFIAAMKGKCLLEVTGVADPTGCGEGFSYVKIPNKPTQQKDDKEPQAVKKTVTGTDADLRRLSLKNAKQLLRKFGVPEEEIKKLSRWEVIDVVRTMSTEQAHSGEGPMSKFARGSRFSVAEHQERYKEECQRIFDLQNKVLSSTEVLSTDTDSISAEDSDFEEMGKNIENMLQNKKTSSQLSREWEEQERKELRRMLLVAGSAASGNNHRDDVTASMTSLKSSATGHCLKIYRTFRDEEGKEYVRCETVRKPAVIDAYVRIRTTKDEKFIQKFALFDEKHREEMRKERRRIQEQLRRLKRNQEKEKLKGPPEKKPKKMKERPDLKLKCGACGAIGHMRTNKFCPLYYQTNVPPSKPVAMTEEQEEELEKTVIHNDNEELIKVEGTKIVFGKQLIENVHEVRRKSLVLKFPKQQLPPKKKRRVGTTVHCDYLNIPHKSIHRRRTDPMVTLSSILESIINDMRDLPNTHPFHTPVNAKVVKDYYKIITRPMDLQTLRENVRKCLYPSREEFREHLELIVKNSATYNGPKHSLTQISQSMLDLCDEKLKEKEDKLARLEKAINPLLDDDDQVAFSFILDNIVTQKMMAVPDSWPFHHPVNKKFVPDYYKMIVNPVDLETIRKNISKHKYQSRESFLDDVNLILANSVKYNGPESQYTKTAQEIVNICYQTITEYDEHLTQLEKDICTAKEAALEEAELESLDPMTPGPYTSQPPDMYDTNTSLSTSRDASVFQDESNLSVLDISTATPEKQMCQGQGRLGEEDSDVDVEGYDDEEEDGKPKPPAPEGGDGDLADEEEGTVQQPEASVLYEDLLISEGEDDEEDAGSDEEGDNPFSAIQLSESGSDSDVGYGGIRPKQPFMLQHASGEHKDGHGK
GCN5L2, sequence (Q92830 whole entry): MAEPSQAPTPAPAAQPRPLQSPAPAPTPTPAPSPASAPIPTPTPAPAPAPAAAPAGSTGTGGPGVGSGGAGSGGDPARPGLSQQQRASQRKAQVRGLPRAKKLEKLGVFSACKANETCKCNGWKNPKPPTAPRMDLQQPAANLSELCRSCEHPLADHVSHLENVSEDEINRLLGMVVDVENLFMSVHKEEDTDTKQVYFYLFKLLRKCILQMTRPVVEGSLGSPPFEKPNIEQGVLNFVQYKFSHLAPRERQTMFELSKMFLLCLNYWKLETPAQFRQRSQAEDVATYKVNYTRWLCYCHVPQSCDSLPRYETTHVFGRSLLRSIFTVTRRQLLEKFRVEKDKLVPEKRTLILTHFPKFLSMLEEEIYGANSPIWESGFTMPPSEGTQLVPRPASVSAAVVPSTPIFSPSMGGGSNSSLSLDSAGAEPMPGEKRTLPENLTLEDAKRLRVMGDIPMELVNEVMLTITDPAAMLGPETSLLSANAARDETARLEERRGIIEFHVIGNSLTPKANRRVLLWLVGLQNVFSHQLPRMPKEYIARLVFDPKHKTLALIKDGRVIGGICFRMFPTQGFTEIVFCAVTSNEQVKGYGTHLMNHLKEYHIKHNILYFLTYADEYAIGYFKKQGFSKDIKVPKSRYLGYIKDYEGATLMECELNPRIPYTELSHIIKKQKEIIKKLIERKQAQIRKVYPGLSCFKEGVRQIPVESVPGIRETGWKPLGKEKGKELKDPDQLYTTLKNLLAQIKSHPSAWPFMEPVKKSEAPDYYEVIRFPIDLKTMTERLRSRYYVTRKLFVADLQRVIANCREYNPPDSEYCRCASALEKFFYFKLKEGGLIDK

SMILES: COc1cc(-c2cn(C)c(=O)c3cnccc23)cc(OC)c1CN(C)C [BI-7273]
IC50 (BRD8(1); tracer: compound 1-biotin): less potently by I-BRD9 and BI-7273

SMILES: COc1cc(CN2CC(N)C2)cc(OC)c1-c1cn(C)c(=O)c2cc(F)ccc12 [DN02]
remaining activity at 1 µM (ATAD2A): 100% | remaining activity at 1 µM (ATAD2B): 79% | remaining activity at 1 µM (BAZ2A): 69% | remaining activity at 1 µM (BAZ2B): 84% | remaining activity at 1 µM (BRD1): 89% | remaining activity at 1 µM (BRD2(1)): 72% | remaining activity at 1 µM (BRD2(2)): 89% | remaining activity at 1 µM (BRD3(1)): 76% | remaining activity at 1 µM (BRD3(2)): 75% | remaining activity at 1 µM (BRD4(1)): 88% | remaining activity at 1 µM (BRD4(2)): 94% | remaining activity at 1 µM (BRD7): 91% | remaining activity at 1 µM (BRD9 [1]): 80% | remaining activity at 1 µM (BRDT(1)): 88% | remaining activity at 1 µM (BRDT(2)): 88% | remaining activity at 1 µM (BRPF1): 65% | remaining activity at 1 µM (BRPF3): 94% | remaining activity at 1 µM (CECR2): 74% | remaining activity at 1 µM (CREBBP): 9.2% | remaining activity at 1 µM (EP300): 8.4% | remaining activity at 1 µM (FALZ): 82% | remaining activity at 1 µM (GCN5L2): 86% | remaining activity at 1 µM (PBRM1(2)): 85% | remaining activity at 1 µM (PBRM1(5)): 87% | remaining activity at 1 µM (PCAF): 69% | remaining activity at 1 µM (SMARCA2): 74% | remaining activity at 1 µM (SMARCA4): 71% | remaining activity at 1 µM (TAF1(2)): 79% | remaining activity at 1 µM (TAF1L(2)): 91% | remaining activity at 1 µM (TRIM24(PHD,Bromo.)): 90% | remaining activity at 1 µM (Trim33(PHD,Bromo.)): 92% | remaining activity at 1 µM (WDR9(2)): 88%

SMILES: COc1ccc2ccccc2c1-c1cn(C)c(=O)c2cnccc12 [compound 2]
pIC50 (BRD9 [2]): < 5.00

Continued, values first:

pIC50 (BRD8(1); tracer: compound 1-biotin): 6.01
SMILES: COc1cc(-c2cn(C)c(=O)c3cnccc23)c(OC)cc1CN(C)C [BI-9564]

pIC50 (BRD9 [2]): < 5.00 | pIC50 (BRD8(1)): 7.07
SMILES: COc1cc(CN(C)C)cc(OC)c1-c1cn(C)c(=O)c2cnccc12 [compound 3]
